According to patent publication US7217730B2, “Method for the use of pyranoindole derivatives to treat infection with Hepatitis C virus” (Wyeth, priority 2002, dated 2007):
Read-outs that look alike come from different tables or passages of the source.

Molecular target: T1, NS5B from the BK strain (genotype 1b) (Hepatitis C virus genotype 1b, UniProt P26663)
T1 construct: NS5B from the BK strain (genotype 1b) is expressed in E. coli as a protein in which the 21 C-terminal amino acids are replaced; made in house; host or cells: E. coli
T1 sequence (P26663 2420-2989): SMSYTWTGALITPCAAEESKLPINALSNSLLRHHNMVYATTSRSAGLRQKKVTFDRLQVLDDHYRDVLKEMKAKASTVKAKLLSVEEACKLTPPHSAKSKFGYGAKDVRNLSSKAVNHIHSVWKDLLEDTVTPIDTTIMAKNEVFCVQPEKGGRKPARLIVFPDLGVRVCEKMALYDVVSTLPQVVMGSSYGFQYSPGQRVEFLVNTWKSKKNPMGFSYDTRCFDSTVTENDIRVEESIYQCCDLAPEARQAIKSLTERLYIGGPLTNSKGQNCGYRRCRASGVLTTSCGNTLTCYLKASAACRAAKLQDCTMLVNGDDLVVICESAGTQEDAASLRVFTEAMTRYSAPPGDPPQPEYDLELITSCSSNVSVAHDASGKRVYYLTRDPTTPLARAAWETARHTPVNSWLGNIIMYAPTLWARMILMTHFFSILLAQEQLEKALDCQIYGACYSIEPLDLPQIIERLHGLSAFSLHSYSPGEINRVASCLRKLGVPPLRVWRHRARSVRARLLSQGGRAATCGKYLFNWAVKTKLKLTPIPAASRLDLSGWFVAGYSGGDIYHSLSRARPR
Experiment: Hepatitis C polymerase inhibition, NS5B BK strain, 33P-GTP filter assay
Type: biochemical
Details: for inhibition at 20 µM: read-out: HCV pol % inh at 20 μM; for IC50: NS5B BK strain
Source text: The ability of the compounds of the present invention to inhibit Hepatitis C Polymerase was established by the following experimental procedure: • NS5B from the BK strain (genotype 1b) is expressed in E. coli as a protein in which the 21 C-terminal amino acids are replaced with a short linker and a hexahistidine tag ([…]). The purified protein is mixed with radioactive nucleotides and allowed to replicate a heteropolymeric RNA substrate, primed by an endogenous short hairpin, resulting in an approximately 760 nt product. The radioactive product is captured on a filter and quantitated after removal of the unincorporated nucleotides.
Reagents: • 10 mM uridine 5′-triphosphate (UTP) (Promega # p116B) • 10 mM adenine 5′-triphosphate (ATP) (Promega # p113B) • 10 mM cytidine 5′-triphosphate (CTP) (Promega # p114B) • 10 mM guanine 5′-triphosphate (GTP) (Promega # p115B) • Bovine Serum Albumin (BSA) 10 mg/ml NEB (100× at 10 mg/ml) #007-BSA • RNasein (Promega #N251X) 40 U/μl • A-[33P]-GTP (NEN-easytides NEG/606H 3000 Ci/mmol, 370 MBq/ml, 10 mCi/ml) • Falcon polypropylene 96 well plates (Becton Dickinson # 351190) • Millipore Multiscreen assasy system-96 well-filtration plate #MADE NOB 50 • Optiphase Supermix (Wallac) formulated by Fisher • Millipore Multiscreen liner for use in microbeta 1450-106 casette [(Wallac) Perkin Elmer #1450-433] • 1 M(N-[2-hydroxyethyl]piperazine-N′-[2-ethanesulfonic acid]) (HEPES), pH 7.3 • Amersham Pharmacia Biotec (US16924-500 ml) • 1 M MgCl2 (SIGMA #M1028) • Dithiothreitol (DTT) (solid) (SIGMA #D9779) • RNase free water (GIBCO-BRL #10977-023) • Dimethyl sulfoxide (Aldrich #27685-5) • Basilen Blue (Sigma, B5520) • 0.5M ethylenediaminetetraacetic acid (EDTA), pH 8 (GIBCO-BRL #15575-020) • Dibasic sodium phosphate (7-hydrate) (Na2HPO4.7H2O; Baker#3824-07) • Phosphoric acid (Baker, #0262.02)
Further reagent preparation: • 0.5 M Na Phosphate buffer. Per liter, weigh 134 gr Na2HPO4.7H2O, add water to 900 ml. Adjust pH to 7.0 with phosphoric acid. Top off with water to 1 L. • Dilute nucleotides 1:1000 to 10 μM (GTP and CTP) or 1:100 to 100 μM (ATP and UTP) into RNase free water.
Procedure: • (1) Compounds 10 μl at 10 μg/ml in 15% dimethylsulfoxide (DMSO)
When starting from 100 μg/ml compound stock in […]: • Dispense 5 μl 30% DMSO per well • Dispense 5 μl compound (100 μg/ml) per well.
When starting from 50 μg/ml compound stock in 15% DMSO: • Add 10 μl compound per well. • (2) Enzyme Mix:
Add 20 μl enzyme mix into each well of the assay plate. Incubate compound and enzyme at room temperature for 15 minutes • (3) Template mix—prepare ahead
Spin down a tube of RNA (5 μg/tube stored in 75% ethanol and 0.3 M sodium acetate) in a microcentrifuge for 20 minutes at 4° C. One tube is enough for 1–1.5 plates. Remove as much ethanol from the tube as possible by inverting the tube. Be gentle, pellet RNA may not adhere to the tube. Vacuum dry the RNA. Resuspend the RNA by adding 1 ml of DEPC water, close the cap of the tube tightly. To dissolve RNA, incubate RNA solution on ice for ˜60 minutes and gently vortex. Spin briefly to ensure all RNA solution is down to the bottom of the tube before opening cap. Gently transfer RNA solution into a 5 ml or larger tube. Add another 3 ml of DEPC water (total 4 ml of volume).
Add the following volumes of reagents
Add 20 μl template mix per reaction (i.e. 20 ng of pOF per reaction or ˜3 nM) • (4) Incubate reaction at room temperature (22–25° C.) for 2 hours. • (5) Stop reaction by adding 50 μl of 170 mM EDTA. • Final concentration of EDTA is 85 mM. • (6) Prewet filters of Millipore multiscreen assay plate by adding 200 μl of 0.5 M sodium phosphate buffer, pH 7.0 into each well. Let stand at room temperature for 2–3 minutes. • (7) Place the multiscreen filter plate onto a Millipore Manifold and turn on vacuum to allow buffer to flow through. Turn off vacuum. Transfer 80 μl of the reaction product into each well of the filter plate. Let stand for 2–3 minutes. […]

[1] = Table 1A, read-out: HCV pol BK IC50

Molecule: C/C=C/CCC1(CC(=O)O)OCCc2c1[nH]c1cccc(Br)c21 (stereo not drawn) [Example 24, {5-bromo-1-[(3E)-pent-3-enyl]-1,3,4,9-tetrahydropyrano[3,4-b]indol-1-yl}acetic acid]
- inhibition at 20 µM (Table 1A, 20 μM compound): < 5%
- IC50 [1]: > 20 µM

Molecule: C/C=C/CCC1(CC(=O)O)OCCc2c1[nH]c1c(Cl)cc(Cl)cc21 (stereo not drawn) [Example 104, {6,8-dichloro-1-[(3E)-pent-3-enyl]-1,3,4,9-tetrahydropyrano[3,4-b]indol-1-yl}acetic acid]
- inhibition at 20 µM (Table 1A, 20 μM compound): < 5%
- IC50 [1]: > 20 µM

Molecule: (1-propyl-8-thien-2-yl-1,3,4,9-tetrahydropyrano[3,4-b]indol-1-yl)acetic acid [Example 95]
- HCV pol % inh at 20 μM (Table 1A, 20 μM compound): 68%
- IC50 [1]: 14.4 µM

Molecule: CCCC1(CC(=O)O)OCCc2c1[nH]c1cccc(-c3ccc(C(F)(F)F)cc3)c21 (stereo not drawn) [Example 36, {1-propyl-5-[4-(trifluoromethyl)phenyl]-1,3,4,9-tetrahydropyrano[3,4-b]indol-1-yl}acetic acid]
- inhibition at 20 µM (Table 1A, 20 μM compound): 4%
- IC50 [1]: > 20 µM

Molecule: CC(C)CCCC1(CC(=O)O)OCCc2c1[nH]c1c(Cl)ccc(Cl)c21 (stereo not drawn) [Example 54, [5,8-dichloro-1-(4-methylpentyl)-1,3,4,9-tetrahydropyrano[3,4-b]indol-1-yl]acetic acid]
- inhibition at 20 µM (Table 1A, 20 μM compound): 6%
- IC50 [1]: > 20 µM

Molecule: CCCCC1(CC(=O)O)OCCc2c1[nH]c1c(F)cc(C)c(Br)c21 (stereo not drawn) [Example 167, (5-bromo-1-butyl-8-fluoro-6-methyl-1,3,4,9-tetrahydropyrano[3,4-b]indol-1-yl)acetic acid]
- inhibition at 20 µM (Table 1A, 20 μM compound): 80%
- IC50 [1]: 3 µM

Molecule: CCCC1(CC(=O)O)OCCc2c1[nH]c1c(C)ccc(C)c21 (stereo not drawn) [Example 139, (5,8-dimethyl-1-propyl-1,3,4,9-tetrahydropyrano[3,4-b]indol-1-yl)acetic acid]
- inhibition at 20 µM (Table 1A, 20 μM compound): 40%
- IC50 [1]: 8.3 µM

Molecule: CC(C)C1(CC(=O)O)OCCc2c1[nH]c1cccc(C#N)c21 (stereo not drawn) [Example 59, (5-cyano-1-isopropyl-1,3,4,9-tetrahydropyrano[3,4-b]indol-1-yl)acetic acid]
- inhibition at 20 µM (Table 1A, 20 μM compound): 23%
- IC50 [1]: > 20 µM

Molecule: N#Cc1ccc(F)c2[nH]c3c(c12)CCOC3(CC(=O)O)C1CCCCC1 (stereo not drawn) [Example 309, (5-cyano-1-cyclohexyl-8-fluoro-1,3,4,9-tetrahydropyrano[3,4-b]indol-1-yl)acetic acid]
- IC50 (Table 1B, read-out: BK IC50): 26 µM

Molecule: CC1(CC(=O)O)OCCc2c1[nH]c1c(Cl)cc(Cl)c(Cl)c21 (stereo not drawn) [Example 154, (5,6,8-trichloro-1-methyl-1,3,4,9-tetrahydropyrano[3,4-b]indol-1-yl)acetic acid]
- inhibition at 20 µM (Table 1A, 20 μM compound): 22%
- IC50 [1]: 22.4 µM

Molecule: O=C(O)CC1(c2cccc([N+](=O)[O-])c2)OCCc2c1[nH]c1cccc(Br)c21 (stereo not drawn) [Example 29, [5-bromo-1-(3-nitrophenyl)-1,3,4,9-tetrahydropyrano[3,4-b]indol-1-yl]acetic acid]
- inhibition at 20 µM (Table 1A, 20 μM compound): < 5%
- IC50 [1]: > 20 µM

Molecule: O=C(O)CC1(c2ccoc2)OCCc2c1[nH]c1c(Cl)ccc(C(F)(F)F)c21 (stereo not drawn) [Example 136, [8-chloro-1-(3-furyl)-5-(trifluoromethyl)-1,3,4,9-tetrahydropyrano[3,4-b]indol-1-yl]acetic acid]
- inhibition at 20 µM (Table 1A, 20 μM compound): 81%
- IC50 [1]: 4.3 µM

Molecule: CCCC1(CC(=O)O)OCCc2c1[nH]c1cccc(-c3ccccc3C)c21 (stereo not drawn) [Example 42, [5-(2-methylphenyl)-1-propyl-1,3,4,9-tetrahydropyrano[3,4-b]indol-1-yl]acetic acid]
- inhibition at 20 µM (Table 1A, 20 μM compound): 31%
- IC50 [1]: > 20 µM

Molecule: Cc1cc(F)c(Br)c2c3c([nH]c12)C(CC(=O)O)(c1ccc(C(=O)O)cc1)OCC3 (stereo not drawn) [Example 204, 4-[5-bromo-1-(carboxymethyl)-6-fluoro-8-methyl-1,3,4,9-tetrahydropyrano[3,4-b]indol-1-yl]benzoic acid]
- inhibition at 20 µM (Table 1A, 20 μM compound): 87%
- IC50 [1]: 1.2 µM

Molecule: CCCC1(CC(=O)O)OCCc2c1[nH]c1c(C(F)(F)F)cccc21 (stereo not drawn) [Example 117, [1-propyl-8-(trifluoromethyl)-1,3,4,9-tetrahydropyrano[3,4-b]indol-1-yl]acetic acid]
- inhibition at 20 µM (Table 1A, 20 μM compound): 39%
- IC50 [1]: 9.6 µM

Molecule: CCC1(CC(=O)O)OCCc2c1[nH]c1c(Cl)cc(C)c(C#N)c21 (stereo not drawn) [Example 182, (8-chloro-5-cyano-1-ethyl-6-methyl-1,3,4,9-tetrahydropyrano[3,4-b]indol-1-yl)acetic acid]
- inhibition at 20 µM (Table 1A, 20 μM compound): 55%
- IC50 [1]: > 5 µM

Molecule: CC1(CC(=O)O)OCCc2c1[nH]c1c(Br)cccc21 (stereo not drawn) [Example 80, (8-bromo-1-methyl-1,3,4,9-tetrahydropyrano[3,4-b]indol-1-yl)acetic acid]
- inhibition at 20 µM (Table 1A, 20 μM compound): 35%
- IC50 [1]: > 20 µM

Molecule: COc1cc(C2(CC(=O)O)OCCc3c2[nH]c2cccc(Br)c32)cc(OC)c1OC (stereo not drawn) [Example 27, [5-bromo-1-(3,4,5-trimethoxyphenyl)-1,3,4,9-tetrahydropyrano[3,4-b]indol-1-yl]acetic acid]
- inhibition at 20 µM (Table 1A, 20 μM compound): 3%
- IC50 [1]: > 20 µM

Molecule: CC(C)C1(CC(=O)O)OCCc2c1[nH]c1c(Cl)cccc21 (stereo not drawn) [Example 75, (8-chloro-1-isopropyl-1,3,4,9-tetrahydropyrano[3,4-b]indol-1-yl)acetic acid]
- inhibition at 20 µM (Table 1A, 20 μM compound): 17%
- IC50 [1]: > 20 µM

Molecule: CCCC1(CC(=O)O)OCCc2c1[nH]c1c(Cl)ccc(C(F)(F)F)c21 (stereo not drawn) [Example 131, [8-chloro-1-propyl-5-(trifluoromethyl)-1,3,4,9-tetrahydropyrano[3,4-b]indol-1-yl]acetic acid]
- inhibition at 20 µM (Table 1A, 20 μM compound): 93%
- IC50 [1]: 0.32 µM

Molecule: (4-cyclobutyl-5,8-dichloro-1-propyl-1,3,4,9-tetrahydropyrano[3,4-b]indol-1-yl)acetic acid [Example 231]
- IC50 [1]: 7.2 µM

Molecule: O=C(O)CC1(CC(=O)O)OCCc2c1[nH]c1cccc(Cl)c21 [Example 71, [1-(carboxymethyl)-5-chloro-1,3,4,9-tetrahydropyrano[3,4-b]indol-1-yl]acetic acid]
- inhibition at 20 µM (Table 1A, 20 μM compound): 45%
- IC50 [1]: > 5 µM

Molecule: CCCC1(CC(=O)O)OCCc2c1[nH]c1cccc(-c3ccccc3OC)c21 (stereo not drawn) [Example 43, [5-(2-methoxyphenyl)-1-propyl-1,3,4,9-tetrahydropyrano[3,4-b]indol-1-yl]acetic acid]
- IC50 [1]: > 20 µM
- inhibition at 20 µM: 83%

Molecule: CCCC1(CC(=O)O)OCCc2c1[nH]c1c(-c3ccccc3)cccc21 (stereo not drawn) [Example 89, (8-phenyl-1-propyl-1,3,4,9-tetrahydropyrano[3,4-b]indol-1-yl)acetic acid]
- inhibition at 20 µM (Table 1A, 20 μM compound): 36%
- IC50 [1]: > 20 µM

Molecule: O=C(O)CC1(c2ccoc2)OCCc2c1[nH]c1c(Br)cccc21 (stereo not drawn) [Example 88, [8-bromo-1-(3-furyl)-1,3,4,9-tetrahydropyrano[3,4-b]indol-1-yl]acetic acid]
- inhibition at 20 µM (Table 1A, 20 μM compound): 30%
- IC50 [1]: > 20 µM
